In one assay the target is COX-1 (Homo sapiens, UniProt P23219). Kind of assay: COX-1 enzyme activity in human whole blood (A23187 stimulated, thromboxane B2 EIA). The format is cell-based. More on the design: Human blood (≈50 mL) from male or female donors who had not received any aspirin or NSAIDs for 14 days; endogenous in cells; host or cells: human whole blood from donors. The note with it: test compound at 100 μM.

In the next assay the target is T1, COX-2 (Homo sapiens, UniProt P35354).
T1 sequence (P35354 18-604): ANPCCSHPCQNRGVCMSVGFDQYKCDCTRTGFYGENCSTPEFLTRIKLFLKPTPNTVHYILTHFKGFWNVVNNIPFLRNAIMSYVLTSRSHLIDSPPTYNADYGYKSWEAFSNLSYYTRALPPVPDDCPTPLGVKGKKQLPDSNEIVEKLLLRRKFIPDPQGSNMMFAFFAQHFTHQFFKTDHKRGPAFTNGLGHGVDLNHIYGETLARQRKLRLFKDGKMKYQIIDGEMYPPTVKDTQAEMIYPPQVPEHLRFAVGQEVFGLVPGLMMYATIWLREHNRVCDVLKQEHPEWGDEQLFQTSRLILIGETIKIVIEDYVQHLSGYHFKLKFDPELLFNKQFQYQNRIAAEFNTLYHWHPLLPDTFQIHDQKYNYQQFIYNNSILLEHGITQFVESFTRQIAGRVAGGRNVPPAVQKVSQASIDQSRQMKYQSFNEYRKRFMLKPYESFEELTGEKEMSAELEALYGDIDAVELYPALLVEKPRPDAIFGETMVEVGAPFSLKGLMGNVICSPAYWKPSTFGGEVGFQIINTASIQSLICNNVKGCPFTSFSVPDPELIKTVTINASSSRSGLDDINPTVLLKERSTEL
In words: COX-2 enzyme activity in human whole blood (LPS induced, thromboxane B2 EIA). The class given is cell-based. The arrangement: Human blood (≈50 mL) from male or female donors who had not received any aspirin or NSAIDs for 14 days; endogenous in cells; host or cells: human whole blood from donors, LPS-induced. The settings on record: test compound at 10 μM.

Chain of COX-1 (P23219 24-599): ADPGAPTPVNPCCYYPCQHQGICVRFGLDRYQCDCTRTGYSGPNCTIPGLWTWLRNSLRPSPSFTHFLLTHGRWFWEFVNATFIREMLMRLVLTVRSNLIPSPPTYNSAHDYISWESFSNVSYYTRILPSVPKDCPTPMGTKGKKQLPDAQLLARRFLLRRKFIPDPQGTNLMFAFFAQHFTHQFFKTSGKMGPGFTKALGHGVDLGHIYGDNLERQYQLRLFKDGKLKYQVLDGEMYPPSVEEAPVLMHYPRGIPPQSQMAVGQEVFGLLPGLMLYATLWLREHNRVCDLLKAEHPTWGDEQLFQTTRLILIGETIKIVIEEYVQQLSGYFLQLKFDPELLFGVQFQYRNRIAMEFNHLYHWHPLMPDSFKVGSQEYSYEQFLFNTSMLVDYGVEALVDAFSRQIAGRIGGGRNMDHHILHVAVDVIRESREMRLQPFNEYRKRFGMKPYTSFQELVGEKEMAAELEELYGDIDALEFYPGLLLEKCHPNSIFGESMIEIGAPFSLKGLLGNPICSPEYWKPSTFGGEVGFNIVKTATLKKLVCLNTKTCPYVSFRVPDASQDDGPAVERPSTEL

Turning to `CS(=O)(=O)c1ccc(-c2cc3c(cc2C=C2CCCC2)OCO3)cc1` [Example 10a, 4-(6-(Cyclopentylidenemethyl)(2H-benzo(3,4-d)1,3-dioxolan-5-yl))-1-(methylsulfonyl)benzene], at COX-1, the “COX-1 Inhibition (% at 100 μM)” value was found to be 70%. Moreover, the “COX-2 Inhibition (% at 10 μM)” value at COX-2 is 90%.

Take `CS(=O)(=O)c1ccc(-c2cc3c(cc2CC2CCCCC2)OCO3)cc1` [Example 1e, 1-(6-(Cyclohexylmethyl)(2-H-benzo(3,4-d)1,3-dioxolen-5-yl))-4-(methylsulfonyl) benzene]: the “COX-1 Inhibition (% at 100 μM)” value on COX-1 is reported as 40%. In addition, on COX-2, the “COX-2 Inhibition (% at 10 μM)” value is reported as 90%.

With `CS(=O)(=O)c1ccc(-c2cc3c(cc2Cc2cc(F)cc(F)c2)OCO3)cc1` [Example 15c, 5-(1-(3′,5′-Difluorophenyl)methyl)-1,2-methylenedioxy-4-(4-methylsulfonylphenyl)benzene], the “COX-1 Inhibition (% at 100 μM)” value on COX-1 is recorded as 75%. Further, on COX-2, the “COX-2 Inhibition (% at 10 μM)” value turned out to be 85%.

As to `CS(=O)(=O)c1ccc(-c2cc3c(cc2CN2CCCCC2=O)OCO3)cc1` [Example 9c], the “COX-1 Inhibition (% at 100 μM)” value on COX-1 is reported as 35%. Also, the “COX-2 Inhibition (% at 10 μM)” value on COX-2 came to 30%.

With `CS(=O)(=O)c1ccc(-c2cc3c(cc2C(=O)c2ccccc2)OCO3)cc1` [Example 3d, 6-(4-(Methylsulfonyl)phenyl)(2H-benzo(d)1,3-dioxolan-5-yl) phenyl ketone], the “COX-1 Inhibition (% at 100 μM)” value at COX-1 is on record as 75%. In addition, the “COX-2 Inhibition (% at 10 μM)” value on COX-2 was 60%.

Regarding `CS(=O)(=O)c1ccc(-c2cc3c(cc2Cc2cccnc2)OCO3)cc1` [Example 6c, 4-(Methylsulfonyl)-1-(6-(3-pyridylmethyl)(2H-benzo(3,4-d)1,3-dioxolan-5-yl))benzene], the “COX-1 Inhibition (% at 100 μM)” value at COX-1 is reported as 20%. On COX-2, the “COX-2 Inhibition (% at 10 μM)” value was determined as 10%.
